Values after ≈ are worked out from the molar mass of the structure shown.
Test system: Staphylococcus aureus
Assay: Antibacterial activity against Staphylococcus aureus measured every 10 mins for 8 hrs by liquid culture growth inhibition assay
Type: functional

| MIC [µg/mL] | SMILES |
| --- | --- |
| 250 (≈ 647 µM) | CC1=CCC[C@@H](C)[C@]1(C)CC/C(C)=C/CO[C@@H]([C@H](O)[C@H](O)CO)[C@H](O)CO |
| 250 (≈ 621 µM) | CC1=CCC[C@@H](C)[C@]1(C)CC/C(=C/CO[C@@H]([C@H](O)[C@H](O)CO)[C@H](O)CO)CO |
